Source: publication PMC3265452 (PLoS Neglected Tropical Diseases, 2012)
Structures can show the parent of a compound that is named as a salt. Where two headings read alike, the source gives them in different places.

Target: AaDOP2 (Aedes aegypti, UniProt H6D5H2)
Test: AaDOP2 antagonist screen of the LOPAC1280 library (HEK-CRELuc-Aadop2 cells, luminescence)
Format: cell-based

Chain of AaDOP2 (H6D5H2 1-476): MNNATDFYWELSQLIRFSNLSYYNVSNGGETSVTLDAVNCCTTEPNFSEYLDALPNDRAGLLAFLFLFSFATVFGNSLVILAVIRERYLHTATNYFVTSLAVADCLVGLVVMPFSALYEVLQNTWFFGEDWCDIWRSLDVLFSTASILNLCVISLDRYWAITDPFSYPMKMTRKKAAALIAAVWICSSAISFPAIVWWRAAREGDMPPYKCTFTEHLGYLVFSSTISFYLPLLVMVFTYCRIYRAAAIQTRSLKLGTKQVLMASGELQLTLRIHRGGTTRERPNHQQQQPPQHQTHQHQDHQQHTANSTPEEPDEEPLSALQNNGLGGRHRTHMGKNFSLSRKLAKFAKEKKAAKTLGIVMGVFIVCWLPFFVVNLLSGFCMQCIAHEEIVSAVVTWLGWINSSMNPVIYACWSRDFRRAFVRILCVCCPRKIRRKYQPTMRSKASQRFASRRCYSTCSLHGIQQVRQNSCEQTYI

For COc1cc2nc(N3CCN(C(=O)C4CCCO4)CC3)nc(N)c2cc1OC (centres unmarked) [Compound 1178, Terazosin hydrochloride], the “Compound effect (percent receptor signaling in presence of test compound, relative lux units relative to the SCH23390 control)” value was 107.

In the case of N#C/C(=C\c1ccc(O)c(O)c1)C(=O)NCCCNC(=O)/C(C#N)=C/c1ccc(O)c(O)c1 [Compound 1179, Tyrphostin AG 537], the “Compound effect (percent receptor signaling in presence of test compound, relative lux units relative to the SCH23390 control)” value was 112.

N#C/C(=C\c1ccc(O)c(O)c1)C(=O)NCCCc1ccccc1 [Compound 1180, Tyrphostin AG 555] was tested, and the “Compound effect (percent receptor signaling in presence of test compound, relative lux units relative to the SCH23390 control)” value was 77.

For N#C/C(=C\c1ccc(O)c(O)c1)C(=O)NCCc1ccccc1 [Compound 1181, Tyrphostin AG 698], the “Compound effect (percent receptor signaling in presence of test compound, relative lux units relative to the SCH23390 control)” value was 82.

With N#C/C(=C\c1c[nH]c2ccccc12)C(=O)c1ccc(O)c(O)c1 [Compound 1182, Tyrphostin AG 808] the “Compound effect (percent receptor signaling in presence of test compound, relative lux units relative to the SCH23390 control)” value was 101.

In the case of CC(C)(C)NCC(O)c1ccccc1Cl (centres unmarked) [Compound 1187, Tulobuterol hydrochloride], the “Compound effect (percent receptor signaling in presence of test compound, relative lux units relative to the SCH23390 control)” value was 104.

With O=c1n(CCCN2CCN(c3cccc(Cl)c3)CC2)nc2ccccn12 [Compound 1188, Trazodone hydrochloride] the “Compound effect (percent receptor signaling in presence of test compound, relative lux units relative to the SCH23390 control)” value was 97.

In the case of COc1cc(C=C(C#N)C#N)cc(O)c1O [Compound 1189, Tyrphostin AG 34], the “Compound effect (percent receptor signaling in presence of test compound, relative lux units relative to the SCH23390 control)” value was 74.

With C[C@]12C=CC(=O)C=C1CC[C@H]1[C@@H]3C[C@@H](O)[C@](O)(C(=O)CO)[C@@]3(C)C[C@H](O)[C@@]12F [Compound 1190, Triamcinolone] the “Compound effect (percent receptor signaling in presence of test compound, relative lux units relative to the SCH23390 control)” value was 108.

With CC(COc1ccc(/C=C/c2ccccc2)cc1)[N+](C)(C)C.[I-] (stereo not drawn) [Compound 1192, N,N,N-trimethyl-1-(4-trans-stilbenoxy)-2-propylammonium iodide] the “Compound effect (percent receptor signaling in presence of test compound, relative lux units relative to the SCH23390 control)” value was 79.

For Cc1ccc(/C(=C\CN2CCCC2)c2ccccn2)cc1.Cl [Compound 1193, Triprolidine hydrochloride], the “Compound effect (percent receptor signaling in presence of test compound, relative lux units relative to the SCH23390 control)” value (10 µM compound, 300 nM dopamine, 2 hr, hit = compound effect <20) was 78%.

In the case of N#CC(C#N)=C(N)/C(C#N)=C/c1ccc(O)cc1 [Compound 1194, Tyrphostin AG 112], the “Compound effect (percent receptor signaling in presence of test compound, relative lux units relative to the SCH23390 control)” value was 118.

For N#CC(C#N)=Cc1ccc(O)c(O)c1 [Compound 1196, Tyrphostin 23], the “Compound effect (percent receptor signaling in presence of test compound, relative lux units relative to the SCH23390 control)” value was 79.

Cc1ccc(S(=O)(=O)N[C@@H](CCCCN)C(=O)CCl)cc1.Cl [Compound 1198, Na-p-Tosyl-L-lysine chloromethyl ketone hydrochloride] was tested, and the “Compound effect (percent receptor signaling in presence of test compound, relative lux units relative to the SCH23390 control)” value was 100.

For N#CC(C#N)=Cc1cc(O)c(O)c(O)c1 [Compound 1199, Tyrphostin 25], the “Compound effect (percent receptor signaling in presence of test compound, relative lux units relative to the SCH23390 control)” value was 113.

With FC(F)(F)c1ccccc1-n1ccnc1 [Compound 1200, 1-[2-(Trifluoromethyl)phenyl]imidazole] the “Compound effect (percent receptor signaling in presence of test compound, relative lux units relative to the SCH23390 control)” value was 86.

CC(=O)O[C@H]1C(=O)[C@@]2(C)[C@H]([C@H](OC(=O)c3ccccc3)[C@]3(O)C[C@H](OC(=O)[C@H](O)[C@@H](NC(=O)c4ccccc4)c4ccccc4)C(C)=C1C3(C)C)[C@]1(OC(C)=O)CO[C@@H]1C[C@@H]2O [Compound 1201, Taxol] was tested, and the “Compound effect (percent receptor signaling in presence of test compound, relative lux units relative to the SCH23390 control)” value was 84.

With CCCCNc1ccc(C(=O)OCCN(C)C)cc1 [Compound 1202, Tetracaine hydrochloride] the “Compound effect (percent receptor signaling in presence of test compound, relative lux units relative to the SCH23390 control)” value was 78.

For N#C/C(=C\c1ccc(O)c(O)c1)C(N)=S [Compound 1203, Tyrphostin 47], the “Compound effect (percent receptor signaling in presence of test compound, relative lux units relative to the SCH23390 control)” value was 61.

For N#CC(C#N)=C(N)/C(C#N)=C/c1cc(O)c(O)c(O)c1 [Compound 1204, Tyrphostin 51], the “Compound effect (percent receptor signaling in presence of test compound, relative lux units relative to the SCH23390 control)” value was 122.
